50 compounds from BindingDB's records for doi:10.1021/acs.jmedchem.1c00779 (Hong Kong Polytechnic University, 2021) can be followed below.

The nature of data set [1]: Inhibition of BCRP (unknown origin) transfected in HEK293/R2 cells assessed as reversal of topotecan resistance after 5 days by MTS/PMS assay.
Data set [2] can be described thus: Inhibition of BCRP (unknown origin) expressed in MCF7/MX100 cells assessed as reversal of topotecan resistance after 5 days by MTS/PMS assay.
Data set [3] can be described thus: Inhibition of P-gp (unknown origin) expressed in human LCC6MDR cells assessed as reversal of paclitaxel resistance after 5 days by MTS/PMS assay.
Data set [4] can be described thus: Inhibition of MRP1 (unknown origin) expressed in human 2008/MRP1 cells assessed as reversal of doxorubicin resistance after 5 days by MTS/PMS assay.
Data set [5] in a line: Inhibition of BCRP (unknown origin) expressed in human HEK293/R2 cells assessed as reversal of mitoxantrone resistance after 5 days by MTS/PMS assay.
Data set [6] in a line: Inhibition of P-gp (unknown origin) expressed in human LCC6MDR cells assessed as reversal of mitoxantrone resistance after 5 days by MTS/PMS assay.
Data set [7] is described as follows: Inhibition of MRP1 (unknown origin) expressed in human 2008/MRP1 cells assessed as reversal of mitoxantrone resistance after 5 days by MTS/PMS assay.

pEC50: −log10 of the molar value. Some results are limits rather than exact numbers.

For orientation: pEC50 means −log10 of the EC50, conventionally taken in molar units. As to `COc1cccc(COc2c(-c3ccc(OCCOCCN=[N+]=[N-])cc3)oc3ccccc3c2=O)c1`, the pEC50 in data set [1] is 7.12.
In the case of `C#CCCCCOc1ccc(/C=C/C(=O)c2ccc(F)cc2O)cc1`, the pEC50 in data set [1] was < 6.00.
On the same count and under the same terms, next, `[N-]=[N+]=NCCOCCOc1ccc(-c2oc3ccccc3c(=O)c2OCc2ccccc2)cc1`: 7.35.
Take `COC(=O)c1cccc(COc2c(-c3ccc(OCCOCCN=[N+]=[N-])cc3)oc3ccccc3c2=O)c1`: the pEC50 in data set [2] is 7.30; in data set [3], < 6.00; in data set [4], < 6.00.
On to `C#CCOCCOc1ccc2c(=O)cc(-c3ccccc3)oc2c1`, for which, in data set [1], the negative-log EC50 (pEC50) is < 6.00.
On the same count and under the same terms, next, `[N-]=[N+]=NCCOCCOCCOc1ccc(-c2cc(=O)c3ccccc3o2)cc1`: 6.44.
With `COC(=O)c1cccc(COc2c(-c3ccc(OCCCCc4cn(Cc5ccccc5)nn4)cc3)oc3ccccc3c2=O)c1`, the pEC50 was 8.22 in data set [2]; 8.15 in data set [1]; 7.89 in data set [5]; 6.17 in data set [3]; < 6.00 in data set [4]; 6.17 in data set [6]. In addition, in data set [7], the pEC50 was 6.05.
Regarding `COC(=O)c1cccc(COc2c(-c3ccc(OCCOCCn4cc(CN(Cc5ccccc5)Cc5ccccc5)nn4)cc3)oc3ccccc3c2=O)c1`, the pEC50 in data set [2] was 7.52; in data set [1] it was 7.49; in data set [3] it was < 6.00; in data set [4], < 6.00.
As to `C#CCN(CC#C)CC#C`, the negative-log EC50 (pEC50) in data set [1] is < 6.00.
Turning to `C#CCCCOc1ccc(-c2cc(=O)c3ccccc3o2)cc1`, in data set [1], the pEC50 is < 6.00.
As for `COC(=O)c1cccc(COc2c(-c3ccc(OCCOCCn4cc(CNc5ccccc5)nn4)cc3)oc3ccccc3c2=O)c1`, the pEC50 was 7.36 in data set [2], 7.59 in data set [1], < 6.00 in data set [3] and < 6.00 in data set [4].
In the case of `[N-]=[N+]=NCCOCCOCCOc1ccc2c(=O)cc(-c3ccccc3)oc2c1`, the pEC50 in data set [1] is 6.75.
Same read-out and setting: next, `C#CCCCOc1ccc2c(=O)cc(-c3ccccc3)oc2c1`: < 6.00; `C#CCN(C)Cc1ccccc1` [N-benzyl-N-methylprop-2-yn-1-amine]: < 6.00.
On to `C#CCN(CCOc1ccc2c(=O)cc(-c3ccccc3)oc2c1)Cc1ccccc1`, for which the pEC50 in data set [1] was < 6.00.
On to `C#CCCCOc1ccc(-c2nc3ccccc3c(=O)[nH]2)cc1`, for which the pEC50 in data set [1] is < 6.00.
Turning to `C#CCCCCOc1ccc2c(=O)cc(-c3ccccc3)oc2c1`, in data set [1], the pEC50 was < 6.00.
On the same count and under the same terms, next, `COC(=O)c1cccc(COc2c(-c3ccc(OCCOCCn4cc(-c5cccc(-c6cn(CCOCCOc7ccc(-c8oc9ccccc9c(=O)c8OCc8cccc(C(=O)OC)c8)cc7)nn6)c5)nn4)cc3)oc3ccccc3c2=O)c1`: 8.60.
Take `COC(=O)c1cccc(COc2c(-c3ccc(OCCOCCOCCn4cc(CN(CCO)Cc5ccccc5)nn4)cc3)oc3ccccc3c2=O)c1`: the pEC50 in data set [2] is 8.80; in data set [1], 8.85; in data set [5], 6.78; in data set [3], 6.51; in data set [4], < 6.00; in data set [6] it was 6.09. Besides, the pEC50 in data set [7] is 6.23.
On to `[N-]=[N+]=NCCOCCOCCOc1ccc(-c2oc3ccccc3c(=O)c2OCc2ccccc2)cc1`, for which, in data set [1], the pEC50 was 7.28.
As to `COC(=O)c1cccc(COc2c(-c3ccc(OCCOCCOCCn4cc(CCCCOc5ccc(C=O)cc5)nn4)cc3)oc3ccccc3c2=O)c1`, the pEC50 in data set [2] is 7.42; in data set [1], 7.72; in data set [3], < 6.00; in data set [4] it was 6.06.
For the compound `[N-]=[N+]=NCCOc1ccc2c(=O)cc(-c3ccccc3)oc2c1`, the pEC50 in data set [1] was 6.67.
For `O=c1cc(-c2ccccc2)oc2cc(OCCNCc3ccccc3)ccc12`, the pEC50 in data set [1] is < 6.00.
In the case of `COC(=O)c1cccc(COc2c(-c3ccc(OCCOCCOCCn4cc(CN(C)Cc5ccccc5)nn4)cc3)oc3ccccc3c2=O)c1`, the pEC50 in data set [2] is 7.55; in data set [1] it was 7.80; in data set [3], 6.08; in data set [4], < 6.00.
As for `[N-]=[N+]=NCCOCCOc1cccc(-c2oc3ccccc3c(=O)c2OCc2ccccc2)c1`, in data set [1], the pEC50 was 6.77.
In the case of `C#CCCCCOc1ccc(C=O)cc1`, the pEC50 in data set [1] is < 6.00.
On the same count and under the same terms, next, `C#CCNc1ccccc1`: < 6.00.
For `COC(=O)c1cccc(COc2c(-c3ccc(OCCOCCn4cc(CN(C)Cc5ccccc5)nn4)cc3)oc3ccccc3c2=O)c1`, the negative-log EC50 (pEC50) was 8.46 in data set [2]; 7.82 in data set [1]; 7.77 in data set [5]; < 6.00 in data set [3]; < 6.00 in data set [4]; 6.19 in data set [6]. In addition, the pEC50 in data set [7] was 6.17.
Turning to `[N-]=[N+]=NCCOCCOc1ccc(-c2cc(=O)c3cc(F)ccc3o2)cc1`, the pEC50 in data set [1] is 6.08.
Still for that read-out and setting: next, `C#CCCCCOc1ccc(-c2oc3ccccc3c(=O)c2OCc2cccc(OC)c2)cc1`: 6.58; `C#CCCCOc1ccc(-c2cc(=O)c3c(OCc4ccccc4)cc(OCOC)cc3o2)cc1`: 6.70.
Regarding `COC(=O)c1cccc(COc2c(-c3ccc(OCCOCCOCCN=[N+]=[N-])cc3)oc3ccccc3c2=O)c1`, the pEC50 is 7.77 in data set [2], 6.53 in data set [3] and < 6.00 in data set [4].
In the case of `[N-]=[N+]=NCCOCCOc1ccc(-c2cc(=O)c3ccccc3o2)cc1`, the pEC50 in data set [1] was 6.44.
The same measure, in the same setting: next, `[N-]=[N+]=NCCOCCOc1ccc2c(=O)cc(-c3ccccc3)oc2c1`: 6.65.
On the same count and under the same terms, next, `Cc1ccc2oc(-c3ccc(OCCOCCOCCN=[N+]=[N-])cc3)cc(=O)c2c1`: 6.12; `C#CCCCCOc1ccc(/C=C/C(=O)c2ccc(C)cc2O)cc1`: < 6.00; `C#CCCN1C(=O)c2ccccc2C1=O`: < 6.00.
Still for that read-out and setting: next, `C#CCCCCOc1ccc(/C=C/C(=O)c2ccccc2O)cc1`: < 6.00; `C#CCCCOc1ccc(-c2cc(=O)c3cc(C)ccc3o2)cc1`: < 6.00; `C#CCCCOc1ccc(-c2cc(=O)c3ccc(F)cc3o2)cc1`: 6.49.
On to `COC(=O)c1cccc(COc2c(-c3ccc(OCCCCc4cn(CCOCCO)nn4)cc3)oc3ccccc3c2=O)c1`, for which the pEC50 in data set [2] is 7.57; in data set [1], 8.00; in data set [3], 6.22; in data set [4] it was < 6.00.
In the case of `COC(=O)c1cccc(COc2c(-c3ccc(OCCOCCOCCn4cc(CCN5C(=O)c6ccccc6C5=O)nn4)cc3)oc3ccccc3c2=O)c1`, the results for the pEC50 in data set [1], in data set [3] and in data set [4] were 6.80, < 6.00 and < 6.00, respectively.
Take `C#CCCCCOc1ccc(/C=C/C(=O)c2cc(CC)ccc2O)cc1`: the pEC50 in data set [1] was < 6.00.
Same read-out and setting: next, `C#CCCCCOc1ccc(/C=C/C(=O)c2cc(C)ccc2O)cc1`: < 6.00; `C#CCN(Cc1ccccc1)Cc1ccccc1`: < 6.00.
Still for that read-out and setting: next, `C#CCCCCOc1ccc(-c2cc(=O)c3cc(F)ccc3o2)cc1`: 6.62.
For the compound `COC(=O)c1cccc(COc2c(-c3ccc(OCCOCCn4cc(CCN5C(=O)c6ccccc6C5=O)nn4)cc3)oc3ccccc3c2=O)c1`, the pEC50 was 7.01 in data set [2], 7.34 in data set [1], < 6.00 in data set [3] and < 6.00 in data set [4].
In the case of `C#CCCCOc1ccc(-c2cc(=O)c3cc(F)ccc3o2)cc1`, the pEC50 in data set [1] was 6.38.
`[N-]=[N+]=NCCOCCO`: the pEC50 in data set [1] is < 6.00.
Take `C#CCCCCOc1ccc(-c2oc3ccccc3c(=O)c2OCc2cccc(C(=O)OC)c2)cc1`: the pEC50 in data set [2] is 7.47; in data set [1] it was 7.36; in data set [3], 6.09; in data set [4] it was < 6.00.
